In US20070243548A1, “Calumenin-directed diagnostics and therapeutics for cancer and chemotherapeutic drug resistance” (priority 2006, published 2007):

Legend:
MCF-7 cells = assay: Phase contrast viability assay (cell morphology); type: cell-based, human; settings: calumenin-depleted MCF-7 cells; FIG. 3
MCF-7/ADR xenografts = assay: Mammary adenocarcinoma MCF-7/ADR xenografts in nude mice; type: in vivo; settings: adenocarcinomas, vs mice treated with control siRNA
Description: In further studies, the efficacy of a calumenin-targeted therapeutic in treating an MDR mammary adenocarcinoma cells (MCF/AR) is assessed. Briefly, male […] nude mice 5 to 7 weeks old, weighing 18 g to 22 g, are used for the MCF-7/ADR xenografts. Mice receive a subcutaneous (s.c.) injection of the cells using 5×10^5 cells/inoculation under the shoulder. When the s.c. tumor is approximately 5.5 mm in size, mice are randomized into treatment groups of 4 including controls and groups receiving taxol or doxorubicin, alone (4 mg/kg), intraperitoneally (i.p.) every 2 days, calumenin siRNA alone (3 μg daily for 16 days), or both taxol and calumenin siRNA (3 μg daily for 16 days for each treatment). […] The animal's weight is measured every 4 days. Tumor growth starting on the first day of treatment is measured and the volume of the xenograft is monitored every 4 days. […] Tumor tissue is excised from the mice and its weight is measured. […]
In further studies, the efficacy of a calumenin-targeted therapeutic in treating a mammary adenocarcinoma cells (MCF-7) is assessed. […] The animal's weight is measured every 4 days. Tumor growth starting on the first day of treatment is measured and the volume of the xenograft is monitored every 4 days. […] Tumor tissue is excised from the mice and its weight is measured. […]

## Calumenin siRNA: siRNA duplex targeting human calumenin mRNA; sense 5′-GAAGGACCGUGUACAUCAU-3′ (SEQ ID NO: 1), anti-sense 5′-AUGAUGUACACGGUCCUUC-3′ (SEQ ID NO: 2), 3′TT overhangs (3' TT overhangs on both strands, further chemistry not given here)
MCF-7 cells
  cell morphology: more rounded cell morphology
MCF-7/ADR xenografts
  total cell number in tumors: lower
MCF-7/ADR xenografts; 3 μg siRNA daily for 16 days
  tumors by weight: smaller
